From patent US10842727B2, “Cosmetic composition comprising white rose flower extract for skin whitening and improving skin wrinkle” (CHUNGBUK NATIONAL UNIVERSITY INDUSTRY-ACADEMIC COOPERATION …, priority 2014, dated 2020)

What was measured:
[1] = tested on: mushroom tyrosinase; assay: Melanin synthase (tyrosinase) inhibition with L-DOPA, absorbance 475 nm; type: biochemical; conditions: method of Example 4
Protocol: Meanwhile, in order to measure a skin whitening effect of the white rose petal extract, an effect of inhibiting activity of tyrosinase as melanin synthase was measured with reference to the guideline of “beauty-related functional tests (pp. 821-858)” of Korea health official compendium research society foundation. […] In this case, on the basis of a change in absorbance when only the buffer without the white rose fractions was added as a reference (100%), reduction of the absorbance caused by the white rose fractions for each concentration was represented by an inhibition rate.

[2] = tested on: B16 mouse melanoma cells; assay: Melanin synthesis inhibition in α-MSH-treated cells; type: cell-based; conditions: method of Example 5
Protocol: In order to more definitize a skin whitening effect of the white rose petal extract, the inventors measured a melanin synthesis inhibitory effect of the white rose petal extract at a cell level with reference to the guideline of “beauty-related functional tests (pp. 821-858)” of Korea health official compendium research society foundation (2004).
When simply describing this, B16 mouse melanoma cells were dispensed to 1×10^4 cells/well (0.5 mL) in a […] plate and cultured for 24 hours. The B16 mouse melanoma cells was treated with the white rose fraction for each concentration and a α-melanocyte stimulating hormone (MSH) and additionally cultured for 3 days at 37° C. The cells were lysed by adding 0.15 mL of 1 M NaOH to a culture medium and boiled for 5 minutes to elute the melanin. 0.1 mL of the eluate was taken and absorbance at 490 nm was measured. A standard calibration curve was created by synthetic melanin and the concentration was quantified and an inhibition rate for each concentration of the white rose fraction was proposed based on a melanin production amount when the sample was not treated as a reference (100%).

[3] = tested on: collagen matrix metalloproteinase-1 (MMP-1); assay: Collagen matrix metalloproteinase-1 (MMP-1) activity inhibition, collagenase type-1 on bovine tendon collagen, ninhydrin absorbance 600 nm; type: biochemical; conditions: method of Example 3
Protocol: As part of measuring a wrinkle alleviation effect of the white rose petal extract, effects of inhibiting activity of collagen matrix metalloproteinase-1 (MMP-1) of the extracts were measured with reference to the guideline of “beauty-related functional tests (pp. 821-858)” of Korea health official compendium research society foundation.
When simply describing the effect, 25 mg of bovine tendon collagen was dissolved in a 0.05 M tris(hydroxymethyl)-methyl-2-aminoethane sulfonate (TES) buffer and then left for 15 minutes at 37° C. Next, a test material for each concentration was added and then additionally reacted with collagenase type-1 for 5 hours at 37° C. 0.2 mL of a reaction solution was taken and added to 1 mL of a buffer [4% ninhydrin in methyl cellosolve (2-methoxyethanol)+0.2 M sodium citrate with 0.71 mM stannous chloride]. The reaction solution was boiled for 20 minutes, added with n-propanol, and then left for 15 minutes and then absorbance was measured at 600 nm. On the basis of a change in absorbance when only the buffer without the white rose fractions was added as a reference (100%), reduction of the absorbance caused by the white rose fractions for each concentration was represented by an inhibition rate.

Question: Which results are given for COc1c(CC=C(C)C)c(O)c2c(=O)c3c(O)ccc(OC)c3oc2c1CC=C(C)C [3,5-di-o-methyl-gartanin]?
Answer: tyrosinase inhibition activity (in words) [1]: excellent tyrosinase inhibition activity; melanin synthesis inhibitory effect (in words) [2]: efficiently inhibited; inhibition effect of MMP-1 (in words) [3]: particularly excellent inhibition effect of MMP-1
